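1) Cells in 96-well plates. 2) Compound, 48 h, 5 concentrations. 3) Linear interpolation between surrounding doses. 4) Unreached endpoint = highest concentration. GI50 is the concentration that inhibits growth by half.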 Calls of active or inactive are those of the source. Rule as the data show it: active = GI50 up to about 1.1 µM and inactive = higher.

Some test systems named below: MDA-N; A498; SR; M14; SNB-75; Malme-3M; OVCAR-8; MOLT-4; SF-539; Hs-578T; SN12C; LOX IMVI; ACHN; CAKI-1; SK-MEL-28; OVCAR-4; NCI-H226; SNB-19.
What all share (assay): growth of human tumour cells (NCI), 48 h

As for `O=C(/C=C/c1ccc2c(c1)OCO2)NCc1ccco1`, the GI50 is > 100 µM (inactive) in the assay with MDA-N; 84.3 µM (inactive) in the assay on A498; 5.09 µM (inactive) with SR; > 100 µM (inactive) in the assay on M14; 22.3 µM (inactive) with SNB-75; > 100 µM (inactive) with Malme-3M. The GI50 is > 100 µM (inactive) with OVCAR-8; > 100 µM (inactive) in the assay on MOLT-4; 64.9 µM (inactive) with SF-539; > 100 µM (inactive) with Hs-578T; > 100 µM (inactive) with SN12C; > 100 µM (inactive) with LOX IMVI. Besides, the GI50 in the assay on ACHN is > 100 µM (inactive); in the assay with CAKI-1 it was > 100 µM (inactive); in the assay on SK-MEL-28, > 100 µM (inactive); with OVCAR-4 it was 41.6 µM (inactive); in the assay on NCI-H226, > 100 µM (inactive); in the assay on SNB-19, 50.9 µM (inactive).
Take `c1ccc([P+](CCCCCC[P+](c2ccccc2)(c2ccccc2)c2ccccc2)(c2ccccc2)c2ccccc2)cc1`: the GI50 with MDA-N was 16.1 µM (inactive); in the assay on A498, 5.04 µM (inactive); with SR it was 21.1 µM (inactive); with M14, 28.6 µM (inactive); in the assay with SNB-75, 5.2 µM (inactive); in the assay with Malme-3M, 37.3 µM (inactive). In addition, the GI50 was 13.3 µM (inactive) in the assay with OVCAR-8; 22.9 µM (inactive) in the assay with MOLT-4; 5.24 µM (inactive) in the assay with SF-539; 15.3 µM (inactive) with Hs-578T; 15.3 µM (inactive) in the assay on SN12C; 12.2 µM (inactive) with LOX IMVI. The GI50 in the assay on ACHN is 50.8 µM (inactive); in the assay on CAKI-1 it was > 100 µM (inactive); with SK-MEL-28, 17.5 µM (inactive); in the assay with OVCAR-4, 23.3 µM (inactive); with NCI-H226, 8.87 µM (inactive); in the assay with SNB-19 it was 0.906 µM (active).
For the compound `C=C(C)C1CC2(C)C(C)CC(O)CC2C(OC(=O)C=C(C)C)C1O` (stereo not drawn), the GI50 is 36.4 µM (inactive) in the assay with MDA-N; 65.5 µM (inactive) in the assay with A498; 17.8 µM (inactive) with SR; 33.7 µM (inactive) in the assay with M14; 11.6 µM (inactive) with SNB-75; 45.6 µM (inactive) in the assay on Malme-3M. Moreover, the GI50 in the assay on OVCAR-8 was 40.6 µM (inactive); in the assay on MOLT-4, 18.1 µM (inactive); in the assay with SF-539 it was 30.9 µM (inactive); in the assay with Hs-578T it was 27.1 µM (inactive); with SN12C, 30.9 µM (inactive); in the assay on LOX IMVI it was 55 µM (inactive). The GI50 is 18.6 µM (inactive) in the assay with ACHN; 43.3 µM (inactive) with CAKI-1; 51.2 µM (inactive) with SK-MEL-28; 29.5 µM (inactive) in the assay with OVCAR-4; 0.933 µM (active) in the assay with NCI-H226; 22.2 µM (inactive) with SNB-19.
Consider `FC(F)(F)C1(c2ccccc2)SCc2nc3ccccc3n21` (stereo not drawn), for which the GI50 was 38.3 µM (inactive) with MDA-N; > 100 µM (inactive) in the assay on A498; 35.2 µM (inactive) in the assay with SR; > 100 µM (inactive) in the assay on M14; 88.1 µM (inactive) in the assay with SNB-75; > 100 µM (inactive) in the assay on Malme-3M. Besides, the GI50 in the assay on OVCAR-8 was > 100 µM (inactive); with MOLT-4 it was 61.7 µM (inactive); in the assay on SF-539 it was > 100 µM (inactive); in the assay on Hs-578T it was > 100 µM (inactive); in the assay with SN12C, > 100 µM (inactive); with LOX IMVI it was 97.5 µM (inactive). The GI50 in the assay with ACHN, in the assay with CAKI-1, in the assay with SK-MEL-28, with OVCAR-4, with NCI-H226 and in the assay on SNB-19 was > 100 µM (inactive) throughout.
Take `Cc1cccc2c1CC(C1OC(=O)c3ccccc31)C2=O` (stereo not drawn): the GI50 with MDA-N, in the assay on A498, with SR, in the assay with M14, in the assay on SNB-75 and in the assay on Malme-3M was > 100 µM (inactive) throughout. Also, the GI50 in the assay with OVCAR-8, in the assay with MOLT-4, in the assay on SF-539, in the assay with Hs-578T, in the assay on SN12C and with LOX IMVI was > 100 µM (inactive) each time. Further, the GI50 in the assay with ACHN, in the assay with CAKI-1, in the assay with SK-MEL-28, in the assay on OVCAR-4, with NCI-H226 and in the assay on SNB-19 was > 100 µM (inactive) throughout.
In the case of `COC(=O)CC1C=CC(C)(OC)OO1` (stereo not drawn), the GI50 in the assay on MDA-N was > 100 µM (inactive); with A498, > 100 µM (inactive); in the assay on SR it was 58.5 µM (inactive); in the assay with M14 it was > 100 µM (inactive); in the assay with SNB-75 it was > 100 µM (inactive); in the assay on Malme-3M it was 78.7 µM (inactive). Besides, the GI50 with OVCAR-8 is > 100 µM (inactive); in the assay on MOLT-4, > 10 µM (inactive); in the assay with SF-539, > 100 µM (inactive); with Hs-578T, > 100 µM (inactive); in the assay with SN12C it was > 100 µM (inactive); with LOX IMVI, 48.3 µM (inactive). Moreover, the GI50 in the assay on ACHN is 94.4 µM (inactive); with CAKI-1 it was > 100 µM (inactive); in the assay on SK-MEL-28, > 100 µM (inactive); in the assay with OVCAR-4, 97.9 µM (inactive); with NCI-H226 it was > 100 µM (inactive); with SNB-19 it was > 100 µM (inactive).
Turning to `Cc1ccc2c(c1)C(=O)/C(=N/Nc1ccc(Cl)cc1)CCO2`, the GI50 with MDA-N is 65.3 µM (inactive); in the assay on A498, > 100 µM (inactive); in the assay with SR it was 44.8 µM (inactive); in the assay on M14 it was 44 µM (inactive); in the assay with SNB-75 it was > 100 µM (inactive); in the assay on Malme-3M it was 46.7 µM (inactive). For the same compound, the GI50 is > 100 µM (inactive) in the assay on OVCAR-8; 71.3 µM (inactive) in the assay with MOLT-4; > 100 µM (inactive) in the assay with SF-539; 35.4 µM (inactive) in the assay on Hs-578T; > 100 µM (inactive) in the assay with SN12C; 35.2 µM (inactive) in the assay on LOX IMVI. The GI50 in the assay with ACHN was > 100 µM (inactive); with CAKI-1, > 100 µM (inactive); with SK-MEL-28, > 100 µM (inactive); in the assay with OVCAR-4, 80.4 µM (inactive); in the assay with NCI-H226, > 100 µM (inactive); in the assay on SNB-19, > 100 µM (inactive).
In the case of `O=c1cc(NNc2cccc3ccccc23)[nH]c(=O)[nH]1`, the GI50 is 12.1 µM (inactive) in the assay with MDA-N; 19.8 µM (inactive) in the assay with A498; 2.61 µM (inactive) in the assay with SR; 15.9 µM (inactive) in the assay with M14; 16.6 µM (inactive) in the assay with SNB-75; 17.8 µM (inactive) with Malme-3M. For the same compound, the GI50 is 18 µM (inactive) in the assay on OVCAR-8; 17.7 µM (inactive) in the assay on MOLT-4; 15.6 µM (inactive) in the assay on SF-539; 26.2 µM (inactive) with Hs-578T; 16.2 µM (inactive) in the assay with SN12C; 13.6 µM (inactive) with LOX IMVI. For the same compound, the GI50 in the assay with ACHN was 16.5 µM (inactive); with CAKI-1 it was 14.7 µM (inactive); with SK-MEL-28, 18.6 µM (inactive); with OVCAR-4 it was 17.2 µM (inactive); in the assay on NCI-H226, 13 µM (inactive); with SNB-19, 14.3 µM (inactive).
In the case of `COc1ccc(N2C(=O)CC(=O)N(NC(=O)C(C)Oc3ccccc3C)C2=S)cc1` (stereo not drawn), the GI50 with MDA-N, in the assay on A498, in the assay on SR, with M14, in the assay with SNB-75 and with Malme-3M was > 100 µM (inactive) throughout. The GI50 in the assay on OVCAR-8, with MOLT-4, with SF-539, with Hs-578T, in the assay with SN12C and with LOX IMVI was > 100 µM (inactive) in each case. In addition, the GI50 in the assay with ACHN, with CAKI-1, in the assay on SK-MEL-28, in the assay with OVCAR-4, with NCI-H226 and with SNB-19 was > 100 µM (inactive) throughout.
Consider `Cc1nn(C(=O)c2ccccc2O)c2c1C(c1ccc([N+](=O)[O-])cc1)SC(=N)N2` (stereo not drawn), for which the GI50 in the assay on MDA-N is 2.89 µM (inactive); with A498 it was 2.78 µM (inactive); in the assay on SR, 4.83 µM (inactive); in the assay on M14 it was 7.19 µM (inactive); with SNB-75 it was 0.769 µM (active); with Malme-3M, 4.42 µM (inactive). The GI50 is 4 µM (inactive) with OVCAR-8; 4.94 µM (inactive) in the assay on MOLT-4; 0.984 µM (active) in the assay with SF-539; 0.676 µM (active) in the assay on Hs-578T; 4.78 µM (inactive) in the assay on SN12C; 3.4 µM (inactive) in the assay on LOX IMVI. The GI50 in the assay on ACHN was 1.17 µM (inactive); in the assay on CAKI-1, 2.19 µM (inactive); with SK-MEL-28 it was > 10 µM (inactive); in the assay on OVCAR-4 it was 3.56 µM (inactive); in the assay on NCI-H226 it was > 4.12 µM (inactive); in the assay with SNB-19, 6.05 µM (inactive).
Take `N#CC1(C#N)NC(c2ccsc2)C(C#N)(C#N)NC1c1ccsc1` (stereo not drawn): the GI50 with MDA-N, in the assay on A498, in the assay on SR, in the assay on M14, in the assay on SNB-75 and in the assay on Malme-3M was > 100 µM (inactive) in each case. Further, the GI50 with OVCAR-8, in the assay with MOLT-4, in the assay with SF-539, in the assay on Hs-578T, in the assay on SN12C and in the assay on LOX IMVI was > 100 µM (inactive) each time. In addition, the GI50 in the assay with ACHN, with CAKI-1, in the assay with SK-MEL-28, with OVCAR-4, with NCI-H226 and in the assay on SNB-19 was > 100 µM (inactive) in each case.

These data come from ChEMBL document CHEMBL1201862, “PubChem BioAssay data set” (2004).
